Experimental data taken from US20120115742A1, “METHODS FOR IDENTIFICATION” (Cambridge Enterprise Limited, priority 2009, published 2012).
pEC50: −log10 of the molar value.

Experiments:
Panc-2H4 cells = assay: Human Panc-2H4 insulin suppression assay; format: cell-based
Description: (§1) Two different assays for “classical” sstr2 functions were adopted: (1) cultured foetal rat pituitary cells secreted growth hormone which is inhibited by sstr2 agonists in a dose-dependent fashion and (2) selected glucose-sensitive sub-clones of the human Panc-1 cell line secrete insulin which is inhibited by sstr2 agonists in a dose-dependent fashion.
Glucose-sensitive sub-clones of the human Panc-1, a cell line derived from a pleiomorphic epithelioid carcinoma of the exocrine pancreas, were obtained essentially as described by Hamil et al. (2008) Biomed. Sci. Instrum. 44:441-6. Briefly, Panc-1 cells were subcultured in 24 well plates, and the medium was supplemented with an additional 5% glucose. […] The resulting sub-lines were then tested for glucose sensitivity by preparing wells of a 96-well plate (5×10^4 cells per well) which were then exposed to cultured medium containing a range of glucose concentrations (low glucose DMEM, DMEM, DMEM+1% glucose, DMEM+2.5% glucose and DMEM+5% glucose). After 24 hrs incubation, the conditioned medium was collected and assayed for insulin secretion by ELISA (Linco; cat# EZHI-14K) in accordance with the manufacturer's instructions. […] Further 96 well plates were prepared using Panc-2H4 (5×10^4 cells per well) in DMEM. After 24 hrs, the medium was switched to DMEM+5% glucose containing various test agents at various concentrations (triplicate wells per condition). After a further 24 hrs, the conditioned medium was harvested and the concentration of insulin was determined by ELISA as described above.
(§2) Results were reported as the mean SD, expressed as the fold change from cells in the presence of vehicle only.

fetal rat pituicytes = assay: Rat pituicyte GH suppression assay; format: cell-based; details: Table 3; suppression compared to vehicle
Description: as §1
Methods: Cultures of fetal rat pituicytes were established exactly as previously described (Murray et al. (2004) J. Clin. Endocrinol. Metab. 89:3027-32) by enzymatic dispersion. After 48 hrs in low glucose DMEM plus 10% FCS, cells in 48 well plates (5×10^4 cells per well) were washed for 4 hrs in serum-free DMEM and then incubated with test agents at various concentrations for a further 24 hrs in serum-free DMEM. At the end of this period, the conditioned medium was harvested, any cell debris removed by centrifugation and assayed for […] using a commercially available ELISA (Linco; cat# EZRMGH-45K) in accordance with the manufacturer's instructions.
as §2

Jurkat-D3B cells = assay: SDF-1α induced migration of Jurkat-D3B cells expressing sstr2; format: cell-based, human
Experimental: Methods: Total mRNA was prepared from Panc-1 cells (a human pancreas cell line which is well known to express high levels of sstr2) using the RNAqueous 4PCR kit (Ambion, Cat code #1914) in accordance with the manufacturer's instructions. The mRNA was then reverse transcribed (using the RETROscript kit; Ambio) to yield a cDNA preparation. A full length cDNA of the sstr2 gene was then obtained by PCR (using a Peltier PTC-200 thermal cycler using the following cycle times and conditions: 94° C. for 2 min, followed by 30 cycles of 94° C., for 30 sec, 55° C. for 30 sec, 72° C. for 1 min and finally 72° C. for 10 min), and isolated by preparative gel electrophoresis. The sequence of the sstr2 cDNA was confirmed by sequencing. The sstr2 cDNA was treated with EcoRI and Xhol to generate sticky ends, which allowed directional cloning into the polylinker of the plasmid pcDNA3.1+ (Invitrogen) followed by ligation ([…] ligation reactions were run with 400 T4 DNA ligase (New England Biolabs) and the maximal amounts of DNA with an insert:plasmid ratio of 3:1 in ligase buffer incubated overnight at 13° C.). […]
A number of individual cell lines were obtained in this way, which expressed significant levels of sstr2 on the cell surface, detected by flow cytometry using the human-sstr2 antibody (Sigma, 50694; see Example 3 for details of the flow cytometry protocol used). […]

[1] = test system: rat peripheral blood leukocytes; assay: Rat chemokine-induced PBMC migration assay; format: cell-based
Experimental: Similarly, where human Panc-2H4 cells are used to determine the effect of agents on classical sstr2 targets, the result is compared with the effect of the same agents on chemokine-induced migration of human THP-1 cells. […] For this reason, the ratio of “classical” to “BSCI” activity in Table 3 is calculated separately for rat and human.

THP-1 cells = assay: MCP-1 induced THP-1 cell migration (Transwell/ChemoTx)
Experimental: Leukocyte migration was measured using the 96-well format micro Transwell® assay system from Neuroprobe (Gaithersburg, Md., USA). In principle, this assay consists of two chambers separated by a porous membrane. The chemoattractant is placed in the lower compartment and the cells are placed in the upper compartment.
First, the cell suspension to be placed in the upper compartment was prepared. The THP-1 cells were pelleted by centrifugation (770×g; 4 mins) and washed with Geys Balanced Salt Solution with 1 mg/ml BSA (GBSS+BSA). This wash was then repeated, and the cells re-pelleted before being resuspended in a small volume of GBSS+BSA for counting, for example using a standard haemocytometer.
This ensured that there were 100,000 THP-1 cells in each 25 μl of the solution to be placed in the upper chamber of the plate.
To the third pot, GBSS+BSA plus vehicle as appropriate was added so that the volumes in three pots are equal, acting as a control.
Next, the chemoattractant solution to be placed in the lower compartment was prepared. […] This solution was divided into three pots, as for the cell suspension. To one pot, the BSCI was added to the same final concentration as was added to the cell suspension, in the second pot the BSCI and the sstr2 antagonist were both added at the same concentration as previously added to the cell suspension, while to the remaining pot GBSS+BSA plus vehicle as appropriate was added so that the volumes in the three pots were equal.
Once the chemoattractant solutions for the lower wells and cell solutions for the upper chambers were prepared, the migration chamber was assembled. 29 μl of the appropriate chemoattractant solution was placed into the lower well of the chamber. Assays were performed with at least triplicate determinations of each condition. Once all the lower chambers were filled, the porous membrane was applied to the chamber in accordance with the manufacturer's instructions. Finally, 25 μl of the appropriate cell solution was applied to each upper chamber. A plastic lid was placed over the entire apparatus to prevent evaporation.
The assembled chamber was incubated at 37° C., 5% CO2, for 2 hours.
At the end of the incubation, the liquid cell suspension was gently removed from the upper chamber, 20 μl of ice-cold 20 mM EDTA in PBS was added to the upper chamber, and the apparatus was incubated at 4° C. for 15 mins. This procedure caused any cells adhering to the underside of the membrane to fall into the lower chamber.
After this incubation the filter was carefully flushed with GBSS+BSA to wash off the EDTA, and then the filter was removed.
The number of cells migrated into the lower chamber under each condition can then be determined by a number of methods, including direct counting, labelling with fluorescent or radioactive markers or through the use of a vital dye. Typically, we utilised the vital dye MTT. 3 μl of stock MTT solution were added to each well, and then the plate was incubated at 37° C. for 1-2 hours during which time dehydrogenase enzymes within the cells converted the soluble MTT to an insoluble blue formazan product that could be quantified spectrophotometrically.
In parallel, an 8-point standard curve was set up. Starting with the number of cells added to each upper chamber (100,000) and going down in 2-fold serial dilutions in GBSS+BSA, the cells were added to a plate in 25 with 3 μl of MTT stock solution added. The standard curve plate was incubated along side the migration plate. At the end of this incubation, the liquid was carefully removed from the lower chambers, taking care not to disturb the precipitated formazan product.
The MCP-1 stimulated migration was determined by subtracting the average number of cells that reached the lower compartment in wells where no MCP-1 was added from the average number of cells that reached the lower compartment where MCP-1 was present at 25 ng/ml.

TNF-alpha = assay: Sub-lethal endotoxemia model, serum TNF-alpha after LPS; format: in vivo, mouse; details: dose-dependent; BN83250 s.c., valerolactam oral gavage
Experimental: We selected the sub-lethal endotoxemia model in mouse, because this has been well characterised in our laboratory (see for example Fox et al. (2002) J. Med. Chem. 45:360-70; Fox et al. (2005) J. Med. Chem. 48:867-74). The extent of systemic inflammation in response to a single intraperitoneal injection of bacterial lipopolysaccharide (LPS) can be estimated by measuring serum TNF-alpha 2 hours post challenge.
Methods: Mice (CD1 strain; adult males; 6 per group) were treated with BSCI (in an appropriate vehicle) or with vehicle alone by an appropriate route. […] Simultaneously, one set of mice at each BSCI concentration received BIM 23627 at 4 mg/animal (120 mg/kg) by sub-cutaneous injection (a treatment condition known to suppress classical sstr2-mediated signalling, such as GH release, in rats; Tulipano et al. (2002) 143:1218-24). Between 30 mins and 1 hour after dosing (a period when a maximal plasma concentration of BSCI has been achieved), the inflammatory challenge was elicited by intraperitoneal injection of 750 μg of LPS (Sigma; L4130 lot#024K4077; 900,000 EU/mg).
After a further 2 hours, the animals were sacrificed by CO2 asphyxiation, and blood was drawn by cardiac puncture. Serum was prepared by conventional methods, and the level of TNF-alpha in serum was measured using an ELISA (R&D Systems; Murine Quantikine code# MTA00) performed in accordance with the manufacturer's instructions.

CC(C)(C)C(=O)N[C@H]1CCCNC1=O [Valerolactam, (S)-3-(2′2′-dimethylpropionoylamino)-tetrahydropyridin-2-one]
pEC50 (Panc-2H4 cells; Table 3, read-out: Human Panc-2H4 insulin suppression assay ED50): < 6.00 | Human Panc-2H4 insulin suppression assay Max effect (Panc-2H4 cells; Table 3, suppression compared to vehicle): <10% | inhibition of insulin secretion by Panc-2H4 (Panc-2H4 cells; highest concentrations tested): None of these agents inhibited insulin secretion | Rat pituicyte GH suppression assay Max effect (fetal rat pituicytes): 61% | sensitivity of Jurkat-D3B migration (Jurkat-D3B cells): sensitive to inhibition | “Classical”:“BSCI” potency ratio, Rat ([1]; PBMC migration ED50 versus pituicyte GH ED50): 0.0009 | Rat chemokine-induced PBMC migration assay Max effect ([1]; Table 3): 100% | potency relative to BN83253 (THP-1 cells; MCP-1 induced THP-1 migration, FIG. 5 versus FIG. 4): 20-50 fold | “Classical”:“BSCI” potency ratio, Human (THP-1 cells; THP-1 migration ED50 versus Panc-2H4 insulin ED50): <0.00005 | Human chemokine-induced THP-1 migration assay Max effect (THP-1 cells; Table 3): 100% | inhibition of LPS-induced systemic inflammation (TNF-alpha): dramatically inhibited
